Values of other authors in patent US12599565B2, “Stable benzimidazole formulation” (DEXCEL PHARMA TECHNOLOGIES LTD., priority 2008, dated 2026).

half life (pH 11): about 300 days | half-life of degradation (pH values below 4.0): less than 10 minutes
SMILES: COc1ccc2[nH]c([S+]([O-])Cc3ncc(C)c(OC)c3C)nc2c1 (centres unmarked) [Omeprazole, 5-methoxy-2(((4-methoxy-3,5-dimethyl-2-pyridinyl)methyl)sulfinyl)-1H-benzimidazole]
